Experimental data published in article PMC7672424 (Nucleic Acids Research, 2020).
pKd: −log10 of the molar value.

What was measured:
[1] = tested on: 19AT (DNA, duplex) ACGTCGATTATAGACGAGC/GCTCGTCTATAATCGACGT; assay: CD melting; conditions: 50 mM K+; 10 mM Tris-HCl pH 7.4; 5 µM DNA, 20 µM compound
TBA = assay: CD melting, DNA stabilization; type: binding; conditions: 5 µM DNA, 20 µM BMPQ-1, 10 mM Tris-HCl, 50 mM KCl, pH 7.4
Description: CD studies were performed on a Chirascan circular dichroism spectrophotometer (Jasco, Easton, MD, USA). A quartz cuvette with a 1 mm path length was used to record the spectra over a wavelength range of 220–320 nm with a 1 nm bandwidth. All the samples were prepared in buffer containing 10 mM Tris–HCl pH 7.4, 100 mM KCl. To ensure the concentrations of G-quadruplex units to be 20 μM, multiple G-quadruplexes forming oligonucleotides with different concentrations were used (TTA (G1) 20 μM, TTA45 (G2) 10 μM, TTA69 (G3) 6.67 μM, TTA93 (G4) 5 μM, TTA117 (G5) 4 μM, TTA141 (G6) 3.33 μM). The DNA samples were heated at 95°C for 5 min and cooled down slowly to room temperature. 20, 40 and 60 μM BMPQ-1 were mixed with DNAs separately. Melting curves were measured at 295 nm and the range of temperature was 4–95°C.

[2] = tested on: monomeric G-quadruplexes (TBA, c-KIT1, c-KIT2, c-MYC Pu22, VEGF, TTA), duplex (19AT), single strand (dT30); assay: Fluorescence response of BMPQ-1 to DNA; type: binding; conditions: 3 μM BMPQ-1, 4 μM other DNAs, λex = 395 nm
Description: Figure 1. (A) Structure of BMPQ-1. (B) Fluorescence spectra of BMPQ-1 at λex = 395 nm in the absence or presence of dimeric G-quadruplexes (TTA45), monomeric G-quadruplexes (c-KIT1, c-KIT2, c-MYCPu22, TTA, VEGF, TBA), trinucleotide DNA (CGG12), duplex DNA (19AT) and single-stranded DNA (dT30). The concentration of BMPQ-1 was 3 μM. The concentration of TTA45 was 2 μM and DNAs with other structures were 4 μM. (C) Fluorescence spectra of 6 μM BMPQ-1 at λex = 395 nm in the absence or presence of 2 μM telomeric G-quadruplexes. Oligonucleotide samples were prepared in solution with 10 mM K2HPO4/KH2PO4, pH 7.0, 100 mM KCl. (D) Effect of BMPQ-1 on the CD spectra of 10 μM TTA45 in 10 mM Tris-HCl buffer (pH 7.4) containing 100 mM KCl.
G-quadruplex forming oligonucleotides were annealed in the buffer (10 mM K2HPO4/KH2PO4 pH 7.0, 100 mM KCl) by heating to 95°C for 5 min, followed by gradual cooling to room temperature. Fluorescence spectra were detected by RF-5301PC spectrofluorophotometer (Shimadzu, Japan) at room temperature. The spectra were recorded with 5 nm excitation and emission slit widths. […] For the fluorescence measurements between BMPQ-1 and different DNA sequences, the final concentrations of multimeric G-quadruplex forming oligonucleotides were 2 μM and other DNA oligonucleotides were 4 μM.

HT29 xenograft = HT29 xenograft mouse model; type: in vivo
Description: Male BALB/C-nu/nu mice (4 weeks old) were purchased from the Beijing Vital River Laboratory Animal Technology Co., Ltd. and housed at Experimental Animal Center of Huazhong Agriculture University (Wuhan, China) and maintained in pathogen-free conditions (12 h light–dark cycle at 24 ± 1°C with 60−70% humidity and provided with food and water ad libitum). HT29 cells were harvested during log-phase growth and were resuspended in FBS-free DMEM medium to the density of 4 × 10^6 cells per 100 μl. 100 μl cells were injected subcutaneously in the right back of the mice. Tumor growth was examined three times a week after implantation, until the tumor volume reached ∼40 mm^3. The mice were randomly divided into two groups, and each group had five mice. Subcutaneous injection was carried out with BMPQ-1 at a dose of 15 mg/kg for the mice in the experimental group. Mice in the control group were treated with an equivalent volume of normal saline. The volume of the tumor mass was measured with an electronic caliper and calculated as 1/2 × length × width^2 in mm^3. The tumors size and the body weight of the mice were measured every day after drug treatment, and growth curves were plotted using average tumor volume within each experimental group. After treatment for 3 weeks, tumor tissues were collected and tested for the weight and the volume.
We tested BMPQ-1 in a HT29 xenograft mouse model of human colon adenocarcinoma. HT29 tumors were established through the subcutaneous injection of HT29 cells into the right back of BALB/C-nu/nu mice ([57],[58]). The mice were divided into normal saline treated group, and BMPQ-1 (15 mg/kg) treated group, n = 5/group. Subcutaneous injection was given daily. After 3 weeks treatment, the tumors were excised and measured for final size (Figure 3B). The tumor volume in the normal saline group reached 700 mm^3 (Figure 3C). In contrast, in the tumor-bearing mice treated with BMPQ-1, the tumor volume was ∼300 mm^3.

TTA45 = assay: smFRET analysis of TTA45 conformational ensemble; type: binding, human; conditions: from high-FRET population against BMPQ-1 concentration; read-out: dissociation constant (KD)
Description: 5′- FAM and 3′-Cy5 labeled TTA45 oligonucleotides were annealed in the buffer of 10 mM Tris–HCl (pH 7.4) and 100 mM KCl, by heating to 95°C for 5 min and slowly cooling down to room temperature. smFRET data collection and analysis were performed as previously described ([43]). In brief, an A1 confocal microscope (Nikon, Japan) coupled to two picosecond pulsed diode laser heads (LDH-P-C-485B and LDH-P-C-640B, PicoQuant, Germany) and two SPCM-AQRH detectors (Excelitas, Canada) was used for fluorescence excitation and emission detection. A 60 × water immersion objective (WI 60×, NA 1.20, Nikon, Japan) was used for confocal laser microscopy, and the pinhole size was set at ∼100 μm. The laser power before the objective was set at ∼100 μW for the 485-nm laser and ∼35 μW for the 640-nm laser. […]
The smFRET measurements were performed at room temperature in pH 7.4 buffer containing 10 mM Tris–HCl, 100 mM KCl, and 0.01% (v/v) Tween 20, with additional 1 mM ascorbic acid and 1 mM methylviologen for photo bleaching and blinking minimization ([44]). […] The exact FRET efficiencies were calculated based on our calibrated parameters for the instrument and fluorophores, and the FRET efficiency distribution was analyzed with a multi-Gaussian mixture using a handwritten script.

[3] = tested on: FAM-TTA45-Cy5 (DNA, G4) GGGTTAGGGTTAGGGTTAGGGTTAGGGTTAGGGTTAGGGTTAGGG; assay: smFRET population titration; conditions: 100 mM K+; 10 mM Tris-HCl pH 7.4, 0.01% Tween 20, 1 mM ascorbic acid, 1 mM methylviologen, room temperature; apparent
[4] = 15 mg/kg subcutaneous daily, 3 weeks

SMILES: Cc1ccc(Cn2cc3c(-c4ccc5c(c4)OCO5)nnc-3c3cc4c(cc32)OCO4)cc1 [BMPQ-1]
- ΔTm [1]: 1.8 °C
- ΔTm (°C) TBA (TBA): 4.7 °C
- fluorescence enhancement [2]: less than 3 fold
- mouse body weight (HT29 xenograft; [4]): no significant change
- tumor weight (HT29 xenograft; [4]): obvious decrease
- tumor volume (HT29 xenograft; 15 mg/kg subcutaneous daily, 3 weeks, saline group 700 mm^3): ~300 mm^3
- tumor growth rate in mouse (HT29 xenograft; versus control): by half
- pKd (TTA45): 6.28
- KD [3]: 527 ± 68.9 nM
